biological target: T1, Q46 protein aggregates (Homo sapiens, UniProt P42858); test: Q46 Radioligand Binding Assay (RBA), displacement of [^3H3]MK-3328; settings: 10 nM [^3H3]MK-3328, 5 μM Q46 protein aggregates
T1 construct: fused on or other part: An N-terminal GST tag, cleaved off with thrombin before the assay to trigger aggregation
Description: For radioligand binding assays (RBA) GST-Q46 protein was generated based on a previous publication (Scherzinger et al. Cell, Vol. 90, 549-558, Aug. 8, 1997). For experiments 33 μM GST-Q46 was incubated with 150 μg/mL thrombin in assay buffer (150 mM NaCl, 50 mM Tris pH 8.0) and 2 mM CaCl2 for 16 hours at 37° C. Aggregated Q46 was pelleted by centrifugation for 5 minutes at 13,000 rpm in a bench top centrifuge and re-dissolved in the same volume of assay buffer. Test compounds were prepared by titration in DMSO at 11 concentrations from 33 μM to 1 nM. For the RBA, Q46 protein aggregates and test compounds were pre-incubated in assay buffer for 20 minutes at room temperature, in 140 μL/well in a 96-well plate (pp, round bottom). Then, ligand was added in 10 μL/well and incubated for 60 minutes at 37° C. Final assay concentrations were 1 μM to 30 pM test compound, 5 μM Q46 protein (equivalent monomer concentration) and 10 nM ligand [^3H3]MK-3328 (Harrision et al., ACS Med. Chem. Lett., 2 (2011), pp 498-502). Samples were transferred onto GF/B filter plates and washed 2× with 200 μL PBS using a Filtermate Harvester. After drying filter plates for 1 hour at 37° C., the back of the plates was sealed with foil and 30 μl/well scintillation fluid (Packard MicroScint 40) was added, incubated for incubated for 15 minutes in the dark and counted in a TopCount reader. For analysis, replicate data from independent assay plates were normalized towards 0% and 100% inhibition using control wells of vehicle (0% inhibition) and 3 μM unlabelled MK-3328 (100% inhibition). IC50 values were determined with a sigmoidal inhibition model with four variables (top, bottom, slope, IC50) in a global fit using the normalized replicate data.

T1 sequence (P42858 with tags, fused parts or gaps with the stated changes, form open): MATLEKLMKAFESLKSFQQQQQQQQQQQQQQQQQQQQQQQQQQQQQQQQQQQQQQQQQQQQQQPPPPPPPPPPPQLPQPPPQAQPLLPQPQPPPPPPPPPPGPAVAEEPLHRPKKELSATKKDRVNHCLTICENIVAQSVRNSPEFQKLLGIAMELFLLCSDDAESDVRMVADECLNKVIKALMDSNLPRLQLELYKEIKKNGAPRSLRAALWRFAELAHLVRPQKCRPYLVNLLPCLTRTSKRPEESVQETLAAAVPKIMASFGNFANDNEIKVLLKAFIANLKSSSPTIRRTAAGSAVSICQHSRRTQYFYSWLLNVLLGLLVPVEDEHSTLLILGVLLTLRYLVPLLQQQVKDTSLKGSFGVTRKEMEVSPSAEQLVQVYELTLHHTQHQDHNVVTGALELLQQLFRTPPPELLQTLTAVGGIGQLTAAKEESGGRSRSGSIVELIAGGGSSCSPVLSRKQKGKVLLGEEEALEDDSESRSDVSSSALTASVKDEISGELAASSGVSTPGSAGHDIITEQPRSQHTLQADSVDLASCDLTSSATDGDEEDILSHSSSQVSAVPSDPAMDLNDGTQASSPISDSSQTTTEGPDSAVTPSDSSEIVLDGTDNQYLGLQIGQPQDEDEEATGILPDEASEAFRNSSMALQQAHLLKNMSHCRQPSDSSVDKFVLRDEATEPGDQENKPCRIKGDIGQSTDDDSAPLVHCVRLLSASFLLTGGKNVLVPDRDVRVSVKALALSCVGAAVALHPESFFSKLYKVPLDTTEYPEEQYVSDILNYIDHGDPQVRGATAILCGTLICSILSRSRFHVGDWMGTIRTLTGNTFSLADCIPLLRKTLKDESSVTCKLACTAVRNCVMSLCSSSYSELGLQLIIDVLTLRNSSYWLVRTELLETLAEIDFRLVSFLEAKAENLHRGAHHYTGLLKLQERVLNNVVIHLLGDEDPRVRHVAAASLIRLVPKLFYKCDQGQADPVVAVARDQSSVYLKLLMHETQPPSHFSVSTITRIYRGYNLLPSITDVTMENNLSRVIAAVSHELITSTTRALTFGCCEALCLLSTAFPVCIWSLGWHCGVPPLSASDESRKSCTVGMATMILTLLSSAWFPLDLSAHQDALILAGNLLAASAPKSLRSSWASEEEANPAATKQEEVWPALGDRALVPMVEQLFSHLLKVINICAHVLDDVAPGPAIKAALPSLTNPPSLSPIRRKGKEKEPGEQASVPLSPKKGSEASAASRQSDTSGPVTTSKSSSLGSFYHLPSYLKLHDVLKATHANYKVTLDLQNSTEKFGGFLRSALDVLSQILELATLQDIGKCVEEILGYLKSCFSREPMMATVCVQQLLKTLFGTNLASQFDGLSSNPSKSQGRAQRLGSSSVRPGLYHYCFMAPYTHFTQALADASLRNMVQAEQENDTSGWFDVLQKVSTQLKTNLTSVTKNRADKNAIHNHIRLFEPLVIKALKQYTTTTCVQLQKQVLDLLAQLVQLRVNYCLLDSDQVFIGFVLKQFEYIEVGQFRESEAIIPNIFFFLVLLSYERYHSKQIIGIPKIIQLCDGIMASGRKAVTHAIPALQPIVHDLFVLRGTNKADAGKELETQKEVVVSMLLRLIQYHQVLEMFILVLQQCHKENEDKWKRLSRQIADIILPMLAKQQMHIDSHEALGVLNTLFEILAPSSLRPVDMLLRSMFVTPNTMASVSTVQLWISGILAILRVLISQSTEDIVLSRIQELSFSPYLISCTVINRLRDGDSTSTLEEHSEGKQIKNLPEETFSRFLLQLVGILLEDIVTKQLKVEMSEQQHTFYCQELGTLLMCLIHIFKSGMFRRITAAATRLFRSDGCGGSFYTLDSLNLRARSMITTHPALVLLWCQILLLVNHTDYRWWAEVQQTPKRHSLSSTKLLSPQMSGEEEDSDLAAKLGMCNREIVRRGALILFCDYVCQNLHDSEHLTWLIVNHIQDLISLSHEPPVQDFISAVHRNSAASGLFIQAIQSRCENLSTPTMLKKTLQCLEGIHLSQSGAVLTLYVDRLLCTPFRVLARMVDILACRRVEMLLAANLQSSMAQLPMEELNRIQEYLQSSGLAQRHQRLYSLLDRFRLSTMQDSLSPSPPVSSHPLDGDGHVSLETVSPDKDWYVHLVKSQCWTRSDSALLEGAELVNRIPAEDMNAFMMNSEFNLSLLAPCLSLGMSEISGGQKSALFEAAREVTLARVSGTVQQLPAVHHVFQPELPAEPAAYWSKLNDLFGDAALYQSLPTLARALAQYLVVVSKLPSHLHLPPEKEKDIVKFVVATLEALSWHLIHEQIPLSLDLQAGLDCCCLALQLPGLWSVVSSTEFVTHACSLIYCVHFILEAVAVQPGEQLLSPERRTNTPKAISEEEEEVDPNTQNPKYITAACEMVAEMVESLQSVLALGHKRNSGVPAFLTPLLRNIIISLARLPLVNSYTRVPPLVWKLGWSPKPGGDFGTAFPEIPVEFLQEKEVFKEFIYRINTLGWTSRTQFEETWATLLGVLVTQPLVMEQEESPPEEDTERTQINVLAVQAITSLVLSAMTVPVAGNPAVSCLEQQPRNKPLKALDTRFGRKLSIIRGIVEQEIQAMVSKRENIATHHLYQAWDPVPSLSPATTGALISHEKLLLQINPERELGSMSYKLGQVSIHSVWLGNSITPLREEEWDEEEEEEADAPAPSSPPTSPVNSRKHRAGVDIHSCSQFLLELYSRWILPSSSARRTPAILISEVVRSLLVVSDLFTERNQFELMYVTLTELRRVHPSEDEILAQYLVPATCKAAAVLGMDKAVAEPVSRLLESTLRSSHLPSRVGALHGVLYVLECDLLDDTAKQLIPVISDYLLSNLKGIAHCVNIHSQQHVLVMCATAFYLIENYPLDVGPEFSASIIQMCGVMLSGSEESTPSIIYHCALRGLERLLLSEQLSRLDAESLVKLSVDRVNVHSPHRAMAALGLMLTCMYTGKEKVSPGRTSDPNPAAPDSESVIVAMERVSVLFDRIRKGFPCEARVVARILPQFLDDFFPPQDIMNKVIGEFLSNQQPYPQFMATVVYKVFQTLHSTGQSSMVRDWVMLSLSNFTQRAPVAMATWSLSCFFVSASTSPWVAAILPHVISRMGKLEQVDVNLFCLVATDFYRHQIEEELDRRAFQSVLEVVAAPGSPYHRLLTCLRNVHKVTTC

SMILES | IC50 [nM]
COc1ccc2c(c1)sc1nc(C(=O)Nc3cncnc3)cn12 [10-methoxy-N-(pyrimidin-5-yl)-7-thia-2,5-diazatricyclo[6.4.0.0^2,6]dodeca-1(12),3,5,8,10-pentaene-4-carboxamide] | < 100
COc1ccc2c(c1)sc1nc(C(=O)Nc3ccc(-c4cccnc4)cn3)cn12 [10-methoxy-N-[5-(pyridin-3-yl)pyridin-2-yl]-7-thia-2,5-diazatricyclo[6.4.0.0^2,6]dodeca-1(12),3,5,8,10-pentaene-4-carboxamide] | < 100
CNCc1cccc(NC(=O)c2cn3c(n2)sc2cc(OC)ccc23)c1 [10-methoxy-N-{3-[(methylamino)methyl]phenyl}-7-thia-2,5-diazatricyclo[6.4.0.0^2,6]dodeca-1(8),3,5,9,11-pentaene-4-carboxamide] | < 100
COc1cncc(NC(=O)c2cn3c(n2)sc2ncc(Br)cc23)c1 [11-bromo-N-(5-methoxypyridin-3-yl)-7-thia-2,5,9-triazatricyclo[6.4.0.0^2,6]dodeca-1(12),3,5,8,10-pentaene-4-carboxamide] | < 100
COc1cncc(NC(=O)c2ccn3c(n2)nc2ccc(-c4cncc(OC)c4)cc23)c1 [N,4-bis(5-methoxypyridin-3-yl)-1,8,10-triazatricyclo[7.4.0.0^2,7]trideca-2(7),3,5,8,10,12-hexaene-11-carboxamide] | < 100
Cn1cc(NC(=O)c2ccn3c(n2)nc2ccccc23)cnc1=O [N-(1-methyl-2-oxo-1,2-dihydropyrimidin-5-yl)-1,8,10-triazatricyclo[7.4.0.0^2,7]trideca-2(7),3,5,8,10,12-hexaene-11-carboxamide] | < 100
Cn1nc(NC(=O)c2ccn3c(n2)nc2ccccc23)ccc1=O [N-(1-methyl-6-oxo-1,6-dihydropyridazin-3-yl)-1,8,10-triazatricyclo[7.4.0.0^2,7]trideca-2(7),3,5,8,10,12-hexaene-11-carboxamide] | < 100
COc1nccc(NC(=O)c2ccn3c(n2)nc2ccccc23)c1C#N [N-(3-cyano-2-methoxypyridin-4-yl)-1,8,10-triazatricyclo[7.4.0.0^2,7]trideca-2(7),3,5,8,10,12-hexaene-11-carboxamide] | < 100
COc1cncc(NC(=O)c2ccn3c(n2)nc2ccccc23)c1 [N-(5-methoxypyridin-3-yl)-1,8,10-triazatricyclo[7.4.0.0^2,7]trideca-2(7),3,5,8,10,12-hexaene-11-carboxamide] | < 100
COc1cncc(NC(=O)c2cn3c(n2)sc2ccccc23)c1 [N-(5-methoxypyridin-3-yl)-7-thia-2,5-diazatricyclo[6.4.0.0^2,6]dodeca-1(12),3,5,8,10-pentaene-4-carboxamide] | < 100
O=C(Nc1ccc(F)nc1)c1ccn2c(n1)nc1ccccc12 [N-(6-fluoropyridin-3-yl)-1,8,10-triazatricyclo[7.4.0.0^2,7]trideca-2(7),3,5,8,10,12-hexaene-11-carboxamide] | < 100
COc1ccc2c(c1)sc1nc(C(=O)Nc3ccc(F)nc3)cn12 [N-(6-fluoropyridin-3-yl)-10-methoxy-7-thia-2,5-diazatricyclo[6.4.0.0^2,6]dodeca-1(12),3,5,8,10-pentaene-4-carboxamide] | < 100
COc1ccc(NC(=O)c2ccn3c(n2)nc2ccccc23)cn1 [N-(6-methoxypyridin-3-yl)-1,8,10-triazatricyclo[7.4.0.0^2,7]trideca-2(7),3,5,8,10,12-hexaene-11-carboxamide] | < 100
COc1ccc2c(c1)sc1nc(CNc3cccnc3)cn12 [N-({10-methoxy-7-thia-2,5-diazatricyclo[6.4.0.0^2,6]dodeca-1(12),3,5,8,10-pentaen-4-yl}methyl)pyridin-3-amine] | > 500
COCCOc1cncc(NC(=O)c2ccn3c(n2)nc2ccccc23)c1 [N-[5-(2-methoxyethoxy)pyridin-3-yl]-1,8,10-triazatricyclo[7.4.0.0^2,7]trideca-2(7),3,5,8,10,12-hexaene-11-carboxamide] | < 100
COc1ccc2c(c1)nc1nc(C(=O)Nc3ccc(-n4ccnc4)nc3)ccn12 [N-[6-(1H-imidazol-1-yl)pyridin-3-yl]-5-methoxy-1,8,10-triazatricyclo[7.4.0.0^2,7]trideca-2(7),3,5,8,10,12-hexaene-11-carboxamide] | < 100

Other lines, results leading:

IC50 [nM] | SMILES
< 100 | CNC(=O)c1ccc(NC(=O)c2cn3c(n2)sc2cc(OC)ccc23)cn1 [10-methoxy-N-[6-(methylcarbamoyl)pyridin-3-yl]-7-thia-2,5-diazatricyclo[6.4.0.0^2,6]dodeca-1(12),3,5,8,10-pentaene-4-carboxamide]
100 to 500 | COc1ccc2c(c1)sc1nc(C(=O)N(C)c3cccnc3)cn12 [10-methoxy-N-methyl-N-(pyridin-3-yl)-7-thia-2,5-diazatricyclo[6.4.0.0^2,6]dodeca-1(12),3,5,8,10-pentaene-4-carboxamide]
< 100 | COc1cnc2sc3nc(C(=O)Nc4ccc(=O)n(C)n4)cn3c2c1 [11-methoxy-N-(1-methyl-6-oxo-1,6-dihydropyridazin-3-yl)-7-thia-2,5,9-triazatricyclo[6.4.0.0^2,6]dodeca-1(12),3,5,8,10-pentaene-4-carboxamide]
< 100 | COc1cncc(NC(=O)c2cn3c(n2)sc2ncc(OC)cc23)c1 [11-methoxy-N-(5-methoxypyridin-3-yl)-7-thia-2,5,9-triazatricyclo[6.4.0.0^2,6]dodeca-1(12),3,5,8,10-pentaene-4-carboxamide]
< 100 | COc1cncc(NC(=O)c2ccn3c(n2)nc2cc(-c4cncc(OC)c4)ccc23)c1 [N,5-bis(5-methoxypyridin-3-yl)-1,8,10-triazatricyclo[7.4.0.0^2,7]trideca-2(7),3,5,8,10,12-hexaene-11-carboxamide]
< 100 | COc1ccc2c(c1)sc1nc(C(=O)Nc3ccc4occc4c3)cn12 [N-(1-benzofuran-5-yl)-10-methoxy-7-thia-2,5-diazatricyclo[6.4.0.0^2,6]dodeca-1(12),3,5,8,10-pentaene-4-carboxamide]
< 100 | C=CCOc1ccc2c(c1)sc1nc(C(=O)Nc3ccc(=O)n(C)n3)cn12 [N-(1-methyl-6-oxo-1,6-dihydropyridazin-3-yl)-10-(prop-2-en-1-yloxy)-7-thia-2,5-diazatricyclo[6.4.0.0^2,6]dodeca-1(12),3,5,8,10-pentaene-4-carboxamide]
100 to 500 | Cn1cc(NC(=O)c2ccn3c(n2)nc2ccccc23)ccc1=O [N-(1-methyl-6-oxo-1,6-dihydropyridin-3-yl)-1,8,10-triazatricyclo[7.4.0.0^2,7]trideca-2(7),3,5,8,10,12-hexaene-11-carboxamide]
< 100 | COc1cc(NC(=O)c2ccn3c(n2)nc2ccccc23)ccn1 [N-(2-methoxypyridin-4-yl)-1,8,10-triazatricyclo[7.4.0.0^2,7]trideca-2(7),3,5,8,10,12-hexaene-11-carboxamide]
< 100 | N#Cc1cnccc1NC(=O)c1ccn2c(n1)nc1ccccc12 [N-(3-cyanopyridin-4-yl)-1,8,10-triazatricyclo[7.4.0.0^2,7]trideca-2(7),3,5,8,10,12-hexaene-11-carboxamide]
< 100 | COc1ccc2c(c1)nc1nc(C(=O)Nc3ccncc3C#N)ccn12 [N-(3-cyanopyridin-4-yl)-5-methoxy-1,8,10-triazatricyclo[7.4.0.0^2,7]trideca-2(7),3,5,8,10,12-hexaene-11-carboxamide]
< 100 | COc1cc(NC(=O)c2ccn3c(n2)nc2ccccc23)cnc1OC [N-(5,6-dimethoxypyridin-3-yl)-1,8,10-triazatricyclo[7.4.0.0^2,7]trideca-2(7),3,5,8,10,12-hexaene-11-carboxamide]
< 100 | COc1cncc(NC(=O)c2cn3c(n2)sc2cc(-c4ccccc4)ccc23)c1 [N-(5-methoxypyridin-3-yl)-10-phenyl-7-thia-2,5-diazatricyclo[6.4.0.0^2,6]dodeca-1(12),3,5,8,10-pentaene-4-carboxamide]
< 100 | O=C(Nc1ccc(=O)[nH]n1)c1ccn2c(n1)nc1ccccc12 [N-(6-oxo-1,6-dihydropyridazin-3-yl)-1,8,10-triazatricyclo[7.4.0.0^2,7]trideca-2(7),3,5,8,10,12-hexaene-11-carboxamide]
< 100 | O=C(Nc1ccc(=O)[nH]c1)c1ccn2c(n1)nc1ccccc12 [N-(6-oxo-1,6-dihydropyridin-3-yl)-1,8,10-triazatricyclo[7.4.0.0^2,7]trideca-2(7),3,5,8,10,12-hexaene-11-carboxamide]
> 500 | O=C(Nc1cccnc1)c1ccn2c(n1)nc1ccccc12 [N-(pyridin-3-yl)-1,8,10-triazatricyclo[7.4.0.0^2,7]trideca-2(7),3,5,8,10,12-hexaene-11-carboxamide]
100 to 500 | COc1ccc2c(c1)sc1nc(C(=O)NCCN(C)C)cn12 [N-[2-(dimethylamino)ethyl]-10-methoxy-7-thia-2,5-diazatricyclo[6.4.0.0^2,6]dodeca-1(12),3,5,8,10-pentaene-4-carboxamide]
